Results reported in article PMC6154719 (Molecules : A Journal of Synthetic Chemistry and Natural …, 2017).

What was measured:
Assay type in all cases: in vitro ADME
CYP2A6 = target: T1, CYP2A6 (Homo sapiens, UniProt P11509); assay: CYP2A6 coumarin 7-hydroxylation in human liver microsomes (HPLC); conditions: substrate coumarin, n = 2
T1 construct: other CYP-mediated activities in human liver microsomes; from tissue; host or cells: human liver microsomal fraction
Method: (§1) Enzyme activities were assayed in human and rat liver cytosolic and microsomal fractions. The enzyme assays (each performed in 4–8 replicates) were repeated three times (HPLC measurement of CYP activities was repeated only twice, Table 3). Inhibition studies were carried out by incubation of specific substrates in the presence of sesquiterpenes (in the range 0–100 µM).
(§2) Enzyme activities of individual CYP forms were measured according to established protocols. The following microsomal CYP activities were tested: CYP2A6, coumarin 7-hydroxylation; CYP2B6, 7-ethoxy-4-(trifluoromethyl)coumarin 7-deethylation, CYP2C9, diclofenac 4′-hydroxylation, CYP2C19 assay, S-mephenytoin 4′-hydroxylation, CYP2D6 on bufuralol 1′-hydroxylation, CYP2E1, chlorzoxazone 6-hydroxylation and CYP3A4, testosterone 6β-hydroxylation, and midazolam 1′-hydroxylation. Activities were measured using the Prominence HPLC system (Shimadzu, Kyoto, Japan), equipped with a LiChroCART 250-4 LiChrospher 100 RP-18 column or Chromolith®HighResolution RP-18 end-capped column (Merck, Darmstadt, Germany) and UV or fluorescence detection, according to the cited literature. […] CYP1A2, 7-ethoxyresorufin O-deethylation, and CYP3A4/2B6 (human), CYP2B1 (rat), benzyloxyresorufin O-debenzylation were measured using the microplate reader Tecan Infinite M200 (Tecan Group; Mannedorf, Switzerland). […]

[1] = system: CYP2B/3A (CYP2B1, BROD activity); assay: CYP2B/3A (BROD activity, benzyloxyresorufin O-debenzylation) in rat liver microsomes; conditions: probe benzyloxyresorufin (O-debenzylation), 0.5-5.0 µM; rat liver microsomes, BROD activity
Method: as §1
(§3) Enzyme activities of individual CYP forms were measured according to established protocols. The following microsomal CYP activities were tested: CYP2A6, coumarin 7-hydroxylation; CYP2B6, 7-ethoxy-4-(trifluoromethyl)coumarin 7-deethylation, CYP2C9, diclofenac 4′-hydroxylation, CYP2C19 assay, S-mephenytoin 4′-hydroxylation, CYP2D6 on bufuralol 1′-hydroxylation, CYP2E1, chlorzoxazone 6-hydroxylation and CYP3A4, testosterone 6β-hydroxylation, and midazolam 1′-hydroxylation. Activities were measured using the Prominence HPLC system (Shimadzu, Kyoto, Japan), equipped with a LiChroCART 250-4 LiChrospher 100 RP-18 column or Chromolith®HighResolution RP-18 end-capped column (Merck, Darmstadt, Germany) and UV or fluorescence detection, according to the cited literature. Further incubation details are described either in the corresponding references, as well as in the papers from this laboratory e.g., [42, 43, 44]. CYP1A2, 7-ethoxyresorufin O-deethylation, and CYP3A4/2B6 (human), CYP2B1 (rat), benzyloxyresorufin O-debenzylation were measured using the microplate reader Tecan Infinite M200 (Tecan Group; Mannedorf, Switzerland).
(§4) Sesquiterpenes CNER, TNER and FAR, non-volatile liquids, were pipetted, and proper concentration was calculated according to density. All compounds were dissolved in DMSO. The final solvent concentration in the inhibition assays was 1%, which had no effect on the enzyme activity (data not shown). Non-enzymatic interference of sesquiterpenes with some compounds in the reaction mixtures (e.g., fluorescence enhancing or quenching) was considered and excluded. All experiments were performed in three replicates, if not stated otherwise.
(§5) CNER, TNER and FAR at a fixed concentration of 100 µM were screened for inhibition of cytosolic AKR1A1, AKR1C, CBR1, NQO1, SULT, and GST, and microsomal CYPs and UGT. The degree of inhibition caused by sesquiterpenes was compared with non-inhibited control reactions, which contained solvent without sesquiterpenes.
(§6) The concentration of sesquiterpenes required for 50% inhibition of enzyme activity, the IC50 value, was determined. Their final concentrations in the reaction mixture were proposed to cover the entire inhibitory range of these compounds (1–100 µM). The IC50 values for each sesquiterpene were determined by plotting sigmoidal dose response curves of specific enzyme activity vs. logarithm of sesquiterpene concentration using GraphPad Prism version 6.07 for Windows (GraphPad Software Inc., La Jolla, CA, USA).
(§7) The kinetic inactivation study of the CYP1A2 (EROD activity) and CYP2B/3A (BROD activity), both in rat and human, with TNER, was performed to find out the mechanism of enzyme inhibition by this sesquiterpene. Mechanism of EROD and BROD inhibition was tested at the final ethoxyresorufin or benzyloxyresorufin concentrations 0.5–5.0 µM. The concentration of TNER was 5.0 µM.
(§8) Experimental data were fitted to the Michaelis-Menten equation, basic kinetic parameters were determined using the program GraphPad Prism version 6.07 for Windows. The type of inhibition was estimated using a Lineweaver-Burk (double-reciprocal) plot.

[2] = system: CYP2B/3A (CYP3A4/2B6, BROD activity); assay: CYP2B/3A (BROD activity, benzyloxyresorufin O-debenzylation) in human liver microsomes; conditions: probe benzyloxyresorufin (O-debenzylation), 0.5-5.0 µM; human liver microsomes, BROD activity
Method: as §1, §3, §4, §5, §6, §7, §8

CYP3A4/5 = CYP3A4/5 midazolam 1′-hydroxylation in human liver microsomes (HPLC); conditions: substrate midazolam, n = 2
Method: as §1, §2

T1 sequence (P11509 whole entry): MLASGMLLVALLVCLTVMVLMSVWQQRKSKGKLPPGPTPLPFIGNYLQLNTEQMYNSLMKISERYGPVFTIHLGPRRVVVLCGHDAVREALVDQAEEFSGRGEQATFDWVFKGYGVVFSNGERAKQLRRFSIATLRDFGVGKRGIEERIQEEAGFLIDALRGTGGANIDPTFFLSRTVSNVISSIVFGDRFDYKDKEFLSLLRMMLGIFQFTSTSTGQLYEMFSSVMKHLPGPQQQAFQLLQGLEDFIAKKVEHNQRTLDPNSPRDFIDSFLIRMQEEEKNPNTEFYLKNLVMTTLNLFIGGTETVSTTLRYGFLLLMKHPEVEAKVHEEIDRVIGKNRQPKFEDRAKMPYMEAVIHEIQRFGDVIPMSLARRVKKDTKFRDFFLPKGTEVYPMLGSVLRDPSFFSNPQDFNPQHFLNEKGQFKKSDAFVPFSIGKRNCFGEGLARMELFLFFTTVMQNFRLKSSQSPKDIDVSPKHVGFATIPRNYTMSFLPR

CC(C)=CCC/C(C)=C/CC/C(C)=C/CO [FAR, farnesol]
IC50 (CYP2A6): 85.9 ± 22.9 µM

C=CC(C)(O)CC/C=C(\C)CCC=C(C)C (stereo not drawn) [TNER, trans-nerolidol]
Ki [1]: 0.55 ± 0.11 µM | Ki [2]: 2.41 ± 0.33 µM

C=CC(C)(O)CC/C=C(/C)CCC=C(C)C (stereo not drawn) [CNER, cis-nerolidol]
IC50 (CYP3A4/5; human, liver microsomes, probe midazolam): 66 µM | IC50 (CYP3A4/5): 66.1 ± 30.5 µM
